Reference: patent publication US9126947B2, “Substituted pyridazine carboxamide compounds” (Xcovery Holding Company LLC, priority 2010, dated 2015)

Legend:
[1] = test system: H3122 tumor cells; experiment: Cell viability assay of tumor cells with ALK fusion proteins (H3122); format: cell-based; conditions: Homo sapiens, NCI-H3122; H3122, 72 hours post drug addition; read-out: Inhibition of H3122 tumor cell growth (IC50)
Procedure: (§1) At 72 hours post drug addition, Cell Titer Blue Reagent (Promega, Madison, Wis.) was added and fluorescence was measured on a Spectramax spectrophotometer (Molecular Devices, Sunnyvale, Calif.) according to the manufacturer's instructions. All experimental points were set up in hextuplicate replicates and were performed at least two independent times. IC50's were calculated using GraphPad Prism version 5 for Windows. The curves were fit using a nonlinear regression model with a log (inhibitor) vs. response formula.

[2] = test system: H2228 tumor cells; experiment: Cell viability assay of tumor cells with ALK fusion proteins (H2228); format: cell-based; conditions: Homo sapiens, NCI-H2228; H2228, 72 hours post drug addition; read-out: Inhibition of H2228 tumor cell growth (IC50)
Procedure: as §1

[3] = test system: H3122 cells; experiment: Cell apoptosis assay of tumor cells with ALK fusion proteins; format: cell-based; conditions: compared with PF-2341066 at the same concentration, 72 h, FIG. 1
Procedure: For apoptosis experiments, cells were seeded in 12 well plates at 25% confluency and treated in triplicate with ALK TKI. At 72 h post drug addition, cells were collected, washed in PBS, and stained with annexin V and propidium iodide according to the manufacturer's instructions (Vybrant Apooptosis Assay Kit, Invitrogen, Carlsbad, Calif.). Data were collected on a FACSCanto II (BD Biosciences, San Jose, Calif.) and processed using WinList flow cytometry analysis software (Verity Software, Topsham, Me.).

[4] = target: ALK (Homo sapiens (Human), UniProt Q9UM73); experiment: Ambit kinase binding assay (ALK); conditions: read-out: ALK inhibitory activities in the Ambit assay (IC50)
Procedure: For most assays, kinase-tagged T7 phage strains were grown in parallel in 24-well blocks in an E. coli host derived from the BL21 strain. E. coli were grown to log-phase and infected with T7 phage from a frozen stock (multiplicity of infection 0.1) and incubated with shaking at 32° C. until lysis (˜90 minutes). The lysates were centrifuged (6,000×g) and filtered ([…]) to remove cell debris. The remaining kinases were produced in HEK-293 cells and subsequently tagged with DNA for qPCR detection. […] The liganded beads were blocked with excess biotin and washed with blocking buffer (SeaBlock (Pierce), 1% BSA, 0.05% Tween 20, 1 mM DTT) to remove unbound ligand and to reduce non-specific phage binding. […] Test compounds were prepared as 40× stocks in 100% DMSO and directly diluted into the assay. All reactions were performed in polypropylene 384-well plates in a final volume of 0.04 ml. […] The kinase concentration in the eluates was measured by qPCR.

[5] = Human microsomal stability; format: in vitro ADME; conditions: compared with Example 25 of WO 2009/154769; 1 μM, 1 mg/mL microsomes
Procedure: Pooled human liver microsomes (1 mg/mL) are incubated at 37° C. in phosphate buffer (pH 7.4) with the test compound (1 μM). The reaction is started with the addition of NADPH. (1 mM final concentration). Incubations are stopped after 0, 5, 10, 20, 40, 60 minutes with the addition of organic solvent. Quenched samples are analyzed for unchanged test compound by LC/MS/MS detection. Percent turnover is determined by the ratio of the amount (peak area) of unchanged test compound remaining in incubated samples to the amount of unchanged test compound in non-incubated samples (0 minutes). Half-life is calculated based on the percent turnover data.

[6] = Brain penetration; format: in vivo; conditions: mice, two hours after dosing; compared with Example 1
Procedure: To determine if a compound can cross the blood-brain-barrier (BBB), mice are dosed with the test compound. Two hours after dosing, mice are sacrificed and blood and brain tissues are collected and analyzed for test compound concentration. Brain penetration is defined as ratio of compound concentration in the brain tissues to that in plasma.

[7] = test system: SH-SY5Y intracranial tumor; experiment: SH-SY5Y intracranial tumor model; format: in vivo, Balb/C nude mice; conditions: oral gavage, vehicle 25 days
Procedure: Balb/C nude mice were anesthetized by i.p. injection of pentobarbital sodium (100 mg/kg body weight). One million SH-SY5Y cells in a volume of 10 μl full-culture medium were injected into the caudate putamen region using a small animal stereotactic apparatus. On the 7th day after implantation, the tumor-bearing mice were assigned into 4 groups, PF-1066, Example 18 low dose, Example 18 high dose, and vehicle were given twice daily (BID) by oral gavage, treatment was stopped until the animal is dead. Animal survival and body weight were observed and recorded.

[8] = target: c-Met (Homo sapiens (Human), UniProt P08581); experiment: Ambit kinase binding assay (c-Met)
Procedure: Assays were performed as described in Fabian et al. (2005) Nature Biotechnology, vol. 23, p. 329 and in Karaman et al. (2008) Nature Biotechnology, vol. 26, p. 127.
For most assays, kinase-tagged T7 phage strains were grown in parallel in 24-well blocks in an E. coli host derived from the BL21 strain. E. coli were grown to log-phase and infected with T7 phage from a frozen stock (multiplicity of infection 0.1) and incubated with shaking at 32° C. until lysis (˜90 minutes). The lysates were centrifuged (6,000×g) and filtered ([…]) to remove cell debris. The remaining kinases were produced in HEK-293 cells and subsequently tagged with DNA for qPCR detection. Streptavidin-coated magnetic beads were treated with biotinylated small molecule ligands for 30 minutes at room temperature to generate affinity resins for kinase assays. The liganded beads were blocked with excess biotin and washed with blocking buffer (SeaBlock (Pierce), 1% BSA, 0.05% Tween 20, 1 mM DTT) to remove unbound ligand and to reduce non-specific phage binding. […] Test compounds were prepared as 40× stocks in 100% DMSO and directly diluted into the assay. All reactions were performed in polypropylene 384-well plates in a final volume of 0.04 ml. The assay plates were incubated at room temperature with shaking for 1 hour and the affinity beads were washed with wash buffer (1×PBS, 0.05% Tween 20). The beads were then re-suspended in elution buffer (1×PBS, 0.05% Tween 20, 0.5 mM non-biotinylated affinity ligand) and incubated at room temperature with shaking for 30 minutes. The kinase concentration in the eluates was measured by qPCR.

Chain of c-Met (P08581 25-1390): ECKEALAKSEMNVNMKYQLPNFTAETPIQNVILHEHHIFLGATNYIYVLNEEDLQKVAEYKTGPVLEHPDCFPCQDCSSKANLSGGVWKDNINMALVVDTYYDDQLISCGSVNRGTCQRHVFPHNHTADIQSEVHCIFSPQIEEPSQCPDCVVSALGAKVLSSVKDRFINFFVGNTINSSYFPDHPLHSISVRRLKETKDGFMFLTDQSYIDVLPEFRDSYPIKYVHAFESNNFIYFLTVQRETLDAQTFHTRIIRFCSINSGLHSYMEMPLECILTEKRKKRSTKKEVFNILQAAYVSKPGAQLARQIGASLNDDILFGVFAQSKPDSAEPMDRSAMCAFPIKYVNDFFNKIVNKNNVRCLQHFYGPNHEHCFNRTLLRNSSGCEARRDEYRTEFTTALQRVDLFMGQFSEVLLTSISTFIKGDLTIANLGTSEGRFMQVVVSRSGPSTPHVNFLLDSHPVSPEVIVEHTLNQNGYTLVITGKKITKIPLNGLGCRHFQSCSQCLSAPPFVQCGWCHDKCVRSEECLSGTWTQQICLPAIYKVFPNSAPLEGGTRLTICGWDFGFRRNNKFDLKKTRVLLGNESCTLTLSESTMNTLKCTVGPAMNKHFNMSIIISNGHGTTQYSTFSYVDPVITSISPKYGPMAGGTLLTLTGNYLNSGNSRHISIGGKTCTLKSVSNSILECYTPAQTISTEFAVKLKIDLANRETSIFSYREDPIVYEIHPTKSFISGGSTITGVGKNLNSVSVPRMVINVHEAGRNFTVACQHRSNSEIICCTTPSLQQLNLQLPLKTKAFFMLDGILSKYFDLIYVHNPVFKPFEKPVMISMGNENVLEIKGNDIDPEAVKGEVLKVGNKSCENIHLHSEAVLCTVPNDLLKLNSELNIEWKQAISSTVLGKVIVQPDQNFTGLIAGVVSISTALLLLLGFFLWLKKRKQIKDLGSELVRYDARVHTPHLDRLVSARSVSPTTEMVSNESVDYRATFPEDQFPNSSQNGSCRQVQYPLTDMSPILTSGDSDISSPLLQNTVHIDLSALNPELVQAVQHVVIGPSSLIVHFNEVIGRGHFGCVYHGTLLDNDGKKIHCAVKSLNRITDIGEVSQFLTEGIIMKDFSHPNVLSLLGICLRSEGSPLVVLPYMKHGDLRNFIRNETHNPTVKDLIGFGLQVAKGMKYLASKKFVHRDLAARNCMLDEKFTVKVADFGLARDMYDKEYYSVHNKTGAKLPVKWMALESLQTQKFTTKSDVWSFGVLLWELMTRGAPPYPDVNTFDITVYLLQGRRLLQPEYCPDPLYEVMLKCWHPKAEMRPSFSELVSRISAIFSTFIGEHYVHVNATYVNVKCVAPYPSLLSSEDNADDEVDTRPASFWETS
Chain of ALK (Q9UM73 19-1620): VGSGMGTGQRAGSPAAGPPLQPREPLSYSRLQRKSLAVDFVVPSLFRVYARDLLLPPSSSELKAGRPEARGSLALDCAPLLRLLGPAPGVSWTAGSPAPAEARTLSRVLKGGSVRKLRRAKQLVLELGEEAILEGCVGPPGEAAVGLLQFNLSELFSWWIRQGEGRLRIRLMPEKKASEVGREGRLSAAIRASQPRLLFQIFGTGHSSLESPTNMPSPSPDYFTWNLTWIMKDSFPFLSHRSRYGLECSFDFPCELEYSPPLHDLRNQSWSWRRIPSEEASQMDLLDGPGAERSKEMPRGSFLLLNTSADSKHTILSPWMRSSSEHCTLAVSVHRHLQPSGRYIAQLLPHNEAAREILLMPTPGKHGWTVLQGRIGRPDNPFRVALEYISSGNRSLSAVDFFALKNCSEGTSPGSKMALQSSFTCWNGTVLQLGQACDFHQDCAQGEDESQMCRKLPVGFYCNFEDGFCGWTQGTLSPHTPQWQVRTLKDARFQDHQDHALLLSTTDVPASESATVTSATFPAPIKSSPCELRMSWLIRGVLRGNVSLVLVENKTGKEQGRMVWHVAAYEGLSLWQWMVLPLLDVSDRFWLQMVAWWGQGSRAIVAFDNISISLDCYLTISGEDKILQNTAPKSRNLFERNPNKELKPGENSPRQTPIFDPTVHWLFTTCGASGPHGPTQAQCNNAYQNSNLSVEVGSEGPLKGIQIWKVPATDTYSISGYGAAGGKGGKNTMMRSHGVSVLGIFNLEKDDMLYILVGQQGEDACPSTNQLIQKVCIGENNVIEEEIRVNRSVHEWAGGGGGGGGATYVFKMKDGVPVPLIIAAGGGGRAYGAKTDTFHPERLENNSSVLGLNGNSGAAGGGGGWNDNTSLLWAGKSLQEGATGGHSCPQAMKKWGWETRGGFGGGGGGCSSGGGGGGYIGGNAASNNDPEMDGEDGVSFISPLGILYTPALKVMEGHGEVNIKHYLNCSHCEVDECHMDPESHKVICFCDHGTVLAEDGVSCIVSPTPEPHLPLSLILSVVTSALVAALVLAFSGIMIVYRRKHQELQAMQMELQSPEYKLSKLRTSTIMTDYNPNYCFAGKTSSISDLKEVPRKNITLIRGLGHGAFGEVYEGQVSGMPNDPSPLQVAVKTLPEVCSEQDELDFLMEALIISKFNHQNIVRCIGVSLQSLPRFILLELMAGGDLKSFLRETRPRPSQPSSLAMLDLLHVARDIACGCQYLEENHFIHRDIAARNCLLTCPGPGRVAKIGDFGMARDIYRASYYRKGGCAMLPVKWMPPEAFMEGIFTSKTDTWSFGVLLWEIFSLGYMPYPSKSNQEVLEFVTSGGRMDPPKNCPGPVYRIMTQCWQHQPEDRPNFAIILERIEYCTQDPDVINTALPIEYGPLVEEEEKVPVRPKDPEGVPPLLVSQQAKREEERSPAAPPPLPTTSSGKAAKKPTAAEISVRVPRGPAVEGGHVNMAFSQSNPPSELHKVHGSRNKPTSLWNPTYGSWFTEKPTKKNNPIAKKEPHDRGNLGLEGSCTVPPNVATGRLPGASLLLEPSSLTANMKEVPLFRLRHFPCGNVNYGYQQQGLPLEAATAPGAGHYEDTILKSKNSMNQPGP

C[C@@H](Oc1cc(C(=O)Nc2ccc(C(=O)N3CCN(C)CC3)cc2)nnc1N)c1c(Cl)ccc(F)c1Cl [Example 1, {5-[(1R)-1-(2,6-dichloro-3-fluorophenyl)ethoxy]-6-aminopyridazin-3-yl}-N-{4-[(4-methylpiperazinyl)carbonyl]phenyl}carboxamide]
IC50 [1]: < 0.05 µM
IC50 [2]: < 0.1 µM
Induction of apoptosis in H3122 cells [3]: more effective
IC50 [4]: < 0.001 µM

C[C@H](Oc1cc(C(=O)Nc2ccc(C(=O)N3CCN(C)CC3)cc2)nnc1N)c1c(Cl)ccc(F)c1Cl [Example 2, {5-[(1S)-1-(2,6-dichloro-3-fluorophenyl)ethoxy]-6-aminopyridazin-3-yl}-N-{4-[(4-methylpiperazinyl)carbonyl]phenyl}carboxamide]
IC50 [4]: > 0.05 µM

C[C@@H](Oc1cc(C(=O)Nc2ccc(C(=O)N3CCN4CCCC4C3)cc2)nnc1N)c1c(Cl)ccc(F)c1Cl (stereo partly drawn) [Example 13, {5-[(1R)-1-(2,6-dichloro-3-fluorophenyl)ethoxy]-6-aminopyridazin-3-yl}-N-{4-[(3,6-diazabicyclo[4.3.0]non-3-yl)carbonyl]phenyl}carboxamide]
IC50 [4]: < 0.001 µM

C[C@@H](Oc1cc(C(=O)Nc2ccc(C(=O)N3CCCN(C)CC3)cc2)nnc1N)c1c(Cl)ccc(F)c1Cl [Example 15, {5-[(1R)-1-(2,6-dichloro-3-fluorophenyl)ethoxy]-6-aminopyridazin-3-yl}-N-{4-[(4-methyl(1,4-diazaperhydroepinyl))carbonyl]phenyl}carboxamide]
IC50 [4]: < 0.001 µM

C[C@@H](Oc1cc(C(=O)Nc2ccc(C(=O)N3CCCNCC3)cc2)nnc1N)c1c(Cl)ccc(F)c1Cl [Example 16, {5-[(1R)-1-(2,6-dichloro-3-fluorophenyl)ethoxy]-6-aminopyridazin-3-yl}-N-[4-(1,4-diazaperhydroepinylcarbonyl)phenyl]carboxamide]
IC50 [1]: < 0.03 µM
Half-life in human liver microsomes [5]: longer half-life
IC50 [2]: < 0.1 µM
IC50 [4]: < 0.001 µM

C[C@@H](Oc1cc(C(=O)Nc2ccc(C(=O)N3CCNC(C)(C)C3)cc2)nnc1N)c1c(Cl)ccc(F)c1Cl [Example 17, {5-[(1R)-1-(2,6-dichloro-3-fluorophenyl)ethoxy]-6-aminopyridazin-3-yl}-N-{4-[(3,3-dimethylpiperazinyl)carbonyl]phenyl}carboxamide]
IC50 [4]: < 0.001 µM

C[C@@H]1CN(C(=O)c2ccc(NC(=O)c3cc(O[C@H](C)c4c(Cl)ccc(F)c4Cl)c(N)nn3)cc2)C[C@H](C)N1 [Example 18, {5-[(1R)-1-(2,6-dichloro-3-fluorophenyl)ethoxy]-6-aminopyridazin-3-yl}-N-{4-[((3S,5R)-3,5-dimethylpiperazinyl)carbonyl]phenyl}carboxamide]
Brain penetration (ratio of concentration in brain tissues to plasma) [6]: higher brain penetration
IC50 [1]: < 0.03 µM
Median survival time (MST) ([7]; 25 mg/kg BID): 25 days
Median survival time (MST) ([7]; 50 mg/kg BID): 34.5 days
Half-life in human liver microsomes [5]: longer half-life
IC50 [2]: < 0.1 µM
IC50 [4]: < 0.001 µM

C[C@@H](Oc1cc(-c2cnn(C3CCNCC3)c2)cnc1N)c1c(Cl)ccc(F)c1Cl [PF-2341066, crizotinib, reference compound]
Median survival time (MST) ([7]; 50 mg/kg BID): 28 days

CC(Oc1cc(C(=O)Nc2ccncc2)nnc1N)c1c(Cl)ccc(F)c1Cl (centres unmarked) [a, reference compound]
IC50 [8]: < 0.02 µM
IC50 [4]: > 0.01 µM

COc1ccc(NC(=O)c2cc(OC(C)c3c(Cl)ccc(F)c3Cl)c(N)nn2)cc1 (centres unmarked) [b, reference compound]
IC50 [8]: < 0.02 µM
IC50 [4]: > 0.01 µM

CC(Oc1cc(C(=O)Nc2ccc(N3CCOCC3)cc2)nnc1N)c1c(Cl)ccc(F)c1Cl (centres unmarked) [c, reference compound]
IC50 [8]: < 0.02 µM
IC50 [4]: > 0.01 µM
